In patent US6677368B2, “4-aryl substituted indolinones” (Sugen, Inc., priority 2000, dated 2004) one finds IC50 data, which are given here for 13 compounds.

The target in this assay is T1, FLK-1 (Mus musculus, UniProt P35918).
T1 construct: GST-Flklcd purified from sf9 recombinant baculovirus transfomnation (SUGEN, Inc.); host or cells: Sf9 insect cells, recombinant baculovirus
T1 sequence (P35918 784-1345 limits assumed): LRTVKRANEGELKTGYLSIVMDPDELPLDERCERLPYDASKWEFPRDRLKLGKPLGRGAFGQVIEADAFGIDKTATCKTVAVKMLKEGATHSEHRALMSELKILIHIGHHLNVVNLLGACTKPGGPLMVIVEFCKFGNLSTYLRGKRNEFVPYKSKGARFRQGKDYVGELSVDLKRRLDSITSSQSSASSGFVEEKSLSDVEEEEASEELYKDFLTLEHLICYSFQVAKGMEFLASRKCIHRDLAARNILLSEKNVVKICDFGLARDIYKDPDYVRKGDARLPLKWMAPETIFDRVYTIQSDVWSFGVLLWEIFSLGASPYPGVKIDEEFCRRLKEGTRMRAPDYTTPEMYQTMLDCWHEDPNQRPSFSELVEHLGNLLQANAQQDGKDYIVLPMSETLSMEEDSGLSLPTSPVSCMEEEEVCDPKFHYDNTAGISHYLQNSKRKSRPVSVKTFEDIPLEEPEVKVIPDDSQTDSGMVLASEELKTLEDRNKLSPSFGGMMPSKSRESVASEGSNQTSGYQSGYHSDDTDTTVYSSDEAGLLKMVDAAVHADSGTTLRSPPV
The experiment in a line: GST-FLK-1 bioassay (tyrosine kinase activity on poly(glu-tyr)). To be noted: GST-Flk1, poly(glu-tyr) substrate, 0.5 μM ATP. It is filed as biochemical. The procedure: This assay analyzes the tyrosine kinase activity of GST-Flk1 on poly(glu-tyr) peptides.
1. Corning 96-well ELISA plates (Corning Catalog No. 25805-96).
2. poly(glu-tyr) 4:1, lyophilizate (Sigma Catalog No. P0275), 1 mg/ml in sterile PBS.
3. PBS Buffer: for 1 L, mix 0.2 g KH2PO4, 1.15 g Na2HPO4, 0.2 g KCl and 8 g NaCl in approx. 900 ml dH2O. When all reagents have dissolved, adjust the pH to 7.2 with HCl. Bring total volume to 1 L with dH2O.
4. PBST Buffer: to 1 L of PBS Buffer, add 1.0 ml Tween-20.
5. TBB—Blocking Buffer: for 1 L, mix 1.21 g TRIS, 8.77 g NaCl, 1 ml TWEEN-20 in approximately 900 ml dH2O. Adjust pH to 7.2 with HCl. Add 10 g BSA, stir to dissolve. Bring total volume to 1 L with dH2O. Filter to remove particulate matter.
6. 1% BSA in PBS: add 10 g BSA to approx. 990 ml PBS buffer, stir to dissolve. Adjust total volume to 1 L with PBS buffer, filter to remove particulate matter.
8. GST-Flklcd purified from sf9 recombinant baculovirus transfomnation (SUGEN, Inc.).
12. Kinase Dilution Buffer (KDB): mix 10 ml Hepes (pH 7.5), 1 ml 5M NaCl, 40 μL 100 mM sodium orthovanadate and 0.4 ml of 5% BSA in dH2O with 88.56 ml dH2O.
13. NUNC 96-well V bottom polypropylene plates, Applied Scientific Catalog #AS-72092
14. EDTA: mix 14.12 g ethylenediaminetetraacetic acid (EDTA) with approx. 70 ml dH2O. Add 10 N NaOH until EDTA dissolves. Adjust pH to 8.0. Adjust total volume to 100 ml with dH2O.
15. 1° and 2° Antibody Dilution Buffer: mix 10 ml of 5% BSA in PBS buffer with 89.5 ml TBST.
16. Anti-phosphotyrosine rabbit polyclonal antisera (SUGEN, Inc.)
17. Goat anti-rabbit HRP conjugate.
18. ABST solution: To approx. 900 ml dH2O add 19.21 g citric acid and 35.49 g Na2HPO4. Adjust pH to 4.0 with phosphoric acid. Add 2,2′-Azinobis(3-ethyl-benzthiazoline-6-sulfonic acid (ABTS, Sigma, Cat. No. A-1888, hold for approx. ½ hour, filter.
19. 30% Hydrogen Peroxide.
20. ABST/H2O2: add 3 μl of H2O2 to 15 ml of ABST solution.
1. Coat Corning 96-well ELISA plates with 2 μg of polyEY in 100 μl PBS/well, hold at room temperature for 2 hours or at […] overnight. Cover plates to prevent evaporation.
2. Remove unbound liquid from wells by inverting plate. Wash once with TBST. Pat the plate on a paper towel to remove excess liquid.
3. Add 100 μl of 1% BSA in PBS to each well. Incubate, with shaking, for 1 hr. at room temperature.
5. Soak wells with 50 mM HEPES (pH7.5, 150 μl/well).
6. Dilute test compound with dH2O/4% DMSO to 4 times the desired final assay concentration in 96-well polypropylene plates.
7. Add 25 μl diluted test compound to each well of ELISA plate. In control wells, place 25 μl of dH2O/4% DMSO.
8. Dilute GST-Flk1 0.005 μg (5 ng)/well in KDB.
9. Add 50 μl of diluted enzyme to each well.
10. Add 25 μl 0.5 M EDTA to negative control wells.
11. Add 25 μl of 40 mM MnCl2 with 4×ATP (2 μM) to all wells (100 μl final volume, 0.5 μM ATP final concentration in each well).
12. Incubate, with shaking, for 15 minutes at room temperature.
13. Stop reaction by adding 25 μl of 500 mM EDTA to each well.
14. Wash 3× with TBST and pat plate on paper towel to remove excess liquid.
15. Add 100 μl per well anti-phosphotyrosine antisera, 1:10,000 dilution in antibody dilution buffer. Incubate, with shaking, for 90 min. at room temperature.
17. Add 100 μl/well of goat anti-rabbit HRP conjugate (1:6,000 in antibody dilution buffer). Incubate, with shaking, for 90 minutes are room temperature.
19. Add 100 μl room temperature ABST/H2O2 solution to each well.
20. Incubate, with shaking for 15 to 30 minutes at room temperature.
21. If necessary, stop reaction by adding 100 μl of 0.2 M HCl to each well.
22. Read results on Dynatech MR7000 ELISA reader with test filter at 410 nM and reference filter at 630 nM.
In turn, `Cc1[nH]c(/C=C2\C(=O)Nc3cccc(-c4ccc(F)cc4)c32)c(C)c1C(=O)NCCN1CCCC1` [Example 6, 5-[4-(4-Fluoro-phenyl)-2-oxo-1,2-dihydro-indol-3-ylidenemethyl]-2,4-dimethyl-1H-pyrrole-3-carboxylic Acid (2-Pyrrolidin-1-yl-ethyl)-amide] had an IC50 of 21 nM.
The compound `CCN(CC)CCNC(=O)c1c(C)[nH]c(/C=C2\C(=O)Nc3cccc(-c4cccc(Cl)c4)c32)c1C` [Example 29, 5-[4-(3-Chloro-phenyl)-2-oxo-1,2-dihydro-indol-3-ylidenemethyl]-2,4-dimethyl-1H-pyrrole-3-carboxylic Acid (2-Diethylamino-ethyl)-amide] had an IC50 of 41 nM.
`Cc1cc(C(=O)NCCN2CCCC2)c(/C=C2\C(=O)Nc3cccc(-c4ccc(F)c(Cl)c4)c32)[nH]1` [Example 119, 2-[4-(3-Chloro-4-fluoro-phenyl)-2-oxo-1,2-dihydro-indol-3-ylidenemethyl]-5-methyl-1H-pyrrole-3-carboxylic Acid (2-Pyrrolidin-1-yl-ethyl)-amide] registered an IC50 of 180 nM.
Next, `Cc1cc(C(=O)N2C[C@@H](C)N[C@@H](C)C2)c(/C=C2\C(=O)Nc3cccc(-c4ccc(Cl)cc4)c32)[nH]1` [Example 27]: 170 nM.
For the compound `Cc1[nH]c(/C=C2\C(=O)Nc3cccc(-c4ccc(Br)cc4)c32)c(C)c1C(=O)N1C[C@@H](C)N[C@@H](C)C1` [Example 57, 4-(4-Bromo-phenyl)-3-[4-[(cis)-3,5-dimethyl-piperazine-1-carbonyl)-3,5-dimethyl-1H-pyrrol-2-ylmethylene]-1,3-dihydro-indol-2-one], the IC50 was found to be 29 nM.
Next, `Cc1[nH]c(/C=C2\C(=O)Nc3cccc(-c4ccc(F)cc4)c32)c(C)c1C(=O)N1CCN(C)CC1` [Example 4, 3-[3,5-Dimethyl-4-(4-methyl-piperazine-1-carbonyl)-1H-pyrrol-2-ylmethylene]-4-(4-fluoro-phenyl)-1,3-dihydro-indol-2-one]: 74 nM; `Cc1[nH]c(/C=C2\C(=O)Nc3cccc(-c4ccc(Br)cc4)c32)c(C)c1C(=O)N1CCN(C)CC1` [Example 53]: 21 nM; `CCN(CC)CCNC(=O)c1c[nH]c(/C=C2\C(=O)Nc3cccc(-c4ccc(Br)cc4)c32)c1C` [Example 61, 5-[4-(4-Bromo-phenyl)-2-oxo-1,2-dihydro-indol-3-ylidenemethyl]-4-methyl-1H-pyrrole-3-carboxylic Acid (2-Diethylamino-ethyl)-amide]: 6 nM.
Next, `Cc1cc(C(=O)N2CC[C@@H](N(C)C)C2)c(/C=C2\C(=O)Nc3cccc(-c4ccc(Cl)cc4)c32)[nH]1` [Example 25, 4-(4-Chloro-phenyl)-3-[3-((R)-3-dimethylamino-pyrrolidine-1-carbonyl)-5-methyl-1H-pyrrol-2-ylmethylene]-1,3-dihydro-indol-2-one]: 180 nM.
Next, `COc1cccc(-c2cccc3c2/C(=C/c2[nH]c(C)c(C(=O)NCCn4ccnn4)c2C)C(=O)N3)c1` [Example 48, 5-[4-(3-Methoxy-phenyl)-2-oxo-1,2-dihydro-indol-3-ylidenemethyl]-2,4-dimethyl-1H-pyrrole-3-carboxylic Acid (2-[1,2,3]Triazol-1-yl-ethyl)-amide]: 12 nM.
For `Cc1cc(C(=O)NCCN2CCCC2)c(/C=C2\C(=O)Nc3cccc(-c4ccc(Br)cc4)c32)[nH]1` [Example 58, 2-[4-(4-Bromo-phenyl)-2-oxo-1,2-dihydro-indol-3-ylidenemethyl]-5-methyl-1H-pyrrole-3-carboxylic Acid (2-Pyrrolidin-1-yl-ethyl)-amide], the IC50 was found to be 54 nM.
In the case of `COc1cccc(-c2cccc3c2/C(=C/c2[nH]c(C)c(C(=O)NCCN(C(C)C)C(C)C)c2C)C(=O)N3)c1` [Example 52, 5-[4-(3-Methoxy-phenyl)-2-oxo-1,2-dihydro-indol-3-ylidenemethyl]-2,4-dimethyl-1H-pyrrole-3-carboxylic Acid (2-Diisopropylamino-ethyl)-amide], the IC50 was found to be 5 nM.
Compound `Cc1[nH]c(/C=C2\C(=O)Nc3cccc(-c4ccc(Cl)cc4)c32)c(C)c1C(=O)NCCN1CCCC1` [Example 22, 5-[4-(4-Chloro-phenyl)-2-oxo-1,2-dihydro-indol-3-ylidenemethyl]-2,4-dimethyl-1H-pyrrole-3-carboxylic Acid (2-Pyrrolidin-1-yl-ethyl)-amide] gave an IC50 of 16 nM.

As usually defined, the IC50 is the concentration needed to halve the response being measured. Low values mean greater potency in that assay, high ones weaker potency in that assay.
